Test results as given in patent US7611863B2, “Selective staining of biomembranes using voltage-sensitive dyes” (Max-Planck-Gesellschaft zur Foerderung der Wissenschaften …, priority 2004, dated 2009).

Legend:
human erythrocytes = assay: Enzyme induced staining of red blood cells; format: cell-based; details: 9.8 μM, PLAP added
Protocol: Enzyme induced staining of red blood cells. Human erythrocytes were prepared according to a slightly modified standard procedure^29. 4 ml of blood of MJH were sucked into a tube coated with EDTA (Vacutainer 367,861, Becton Dickinson, Meylan, France) and centrifuged for 10 min at 1600 g. The pellet (˜1 ml) was washed three times by resuspension and centrifugation for 10 min at 1600 g using 15 ml of a 300 mOsm Tris buffer (50 mM Tris, 110 mM NaCl, pH 7.4). Finally, the pellet was diluted with an equal volume of the same buffer additionally containing 1 mM CaCl2.
The staining experiments with erythrocytes were similar to those with giant vesicles. […]
Di-4-ASPP phosphate was added to human erythrocytes attached to a culture dish to a concentration of 9.8 μM. Membrane fluorescence was measured in the same setup as with giant vesicles. Fluorescence was weaker than with giant vesicles, which we attribute to fluorescence quenching by hemoglobin and the smaller size of the erythrocytes. […]
Plots of the intensity of a row of pixels cutting through the image of an erythrocyte at its maximum diameter are shown in B. The normalized maximum brightness minus the background signal versus time is shown in C. The ratio of final and initial fluorescence was F∞/F0=11-25 with an average of 15. These values are similar to the fluorescence enhancement on giant vesicles. […]

[1] = Enzyme induced staining of giant vesicles; format: biochemical; details: giant POPC vesicles, 9.8 μM dye phosphate, PLAP added
Protocol: Enzyme induced staining of giant vesicles. Giant POPC vesicles were prepared by electroswelling^27,28. 5 μl of a 2 mM lipid solution in diethylether/methanol (9:1, v/v) were applied to a pair of planar electrodes of indium tin oxide coated with 70 nm of silica. After evaporation of the solvent under reduced pressure (0.1 mbar), 2 ml of 300 mM sucrose were added and giant vesicle formation was promoted by applying AC voltage to the electrodes. After formation was complete, vesicles were transferred to 35 mm polypropylene cell culture dishes (BD Biosciences Europe, Le Pont de Claix, France) and diluted in the same buffer. They were used the same day.
For enzyme kinetic measurements at room temperature, 400 μl of the giant vesicle stock solution were transferred to a culture dish containing 3,600 μl buffer (20 mM Tris, 100 mM NaCl, 120 mM Glucose, pH 8.1). […] The fluorescence of a selected giant vesicle with a diameter of 10 to 40 μm was observed using a microscope (Axioskop, Zeiss, Oberkochen, Germany) equipped with a 100 water immersion objective and a b/w CCD camera (Sony ICX 285 Chip, Theta System, Gröbenzell, Germany). […] The fluorescence was detected through the dichroic mirror and a long pass filter (510 nm). […] Images were recorded every 10 or 20 seconds before and after addition of the phosphatase. […]

## CCCCN(CCCC)c1ccc(/C=C/c2cc[n+](CCCOP(=O)([O-])O)cc2)cc1 [Di-4-ASPP phosphate]
Human erythrocytes
  ratio of final and initial fluorescence F∞/F0, average: 15
  ratio of final and initial fluorescence F∞/F0, range: 11-25
[1]
  ratio of fluorescence intensities F∞/F0: 9-13
